# Test results: patent US7056922B2, “Acylamino cyclopropane derivatives” (Pfizer Inc, priority 2000, dated 2006)
# Where a name gives a salt, the structure may show the parent alone.
# Columns and labels:
# [1] = biological target: dopamine D2 receptor (Homo sapiens, UniProt P14416); test: Dopamine D2 receptor binding (Binding data table)
# [2] = biological target: human dopamine D3 receptor (Homo sapiens, UniProt P35462); test: Displacement of [3H] 7 OH-DPAT binding to membranes of CHO cells expressing human dopamine D3 receptor; conditions: [3H] 7 OH-DPAT 0.4 nM, CHO cell membranes, cloned human D3 receptor
# Sequence of human dopamine D3 receptor (P35462 whole entry): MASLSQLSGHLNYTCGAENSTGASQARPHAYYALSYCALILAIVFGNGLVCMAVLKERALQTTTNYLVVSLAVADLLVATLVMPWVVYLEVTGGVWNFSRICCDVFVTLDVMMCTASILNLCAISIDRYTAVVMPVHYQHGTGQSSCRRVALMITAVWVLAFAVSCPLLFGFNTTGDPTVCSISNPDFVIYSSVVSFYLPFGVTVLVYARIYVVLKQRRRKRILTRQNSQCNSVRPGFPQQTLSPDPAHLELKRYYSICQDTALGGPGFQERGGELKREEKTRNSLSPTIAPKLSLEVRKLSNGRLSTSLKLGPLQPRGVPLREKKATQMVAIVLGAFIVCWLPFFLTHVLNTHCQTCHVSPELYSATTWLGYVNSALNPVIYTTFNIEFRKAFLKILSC
# Experimental: The inhibition constants (Ki) of test compounds were measured by displacement of [^3H] 7 OH-DPAT binding to membrane preparations from Chinese hamster ovary cells expressing human dopamine D3 receptor. Cells expressing the human D3 receptor were homogenized with Polytron and centrifuged for 10 min at 4° C. at 20,000 RPM in a Sorvall RCB5 centrifuge with a SS34 rotor. After repeating the washing once more, the pellet was resuspended in buffer consisting of 120 mM NaCl, 5 mM KCl, 5 mM MgCl2, 2 mM CaCl2 and 50 mM tris, pH 7.4 and the protein content determined using bovine serum albumin as a standard (Bradford, M. M. (1976) Anal. Biochem. 72, 248–254). Compounds at varying concentrations were incubated with the membrane preparations in the presence of 0.4 nM [^3H] 7 OH-DPAT. The assay was incubated for 15 min at 37° C. and the reaction was terminated by rapid filtration with 50 mM Tris pH 7.4, through GF/B filters previously soaked in 0.5% polyethyleneimine. Filters were dried overnight and counted in Betaplate Scintillation counter. Non-specific binding was defined as the radioligand binding remaining after incubation in the presence of 10 μM butacomol. For competition curves, seven concentrations (single log dilutions) of competing unlabeled, compounds were used. Competition curves were analysed simultaneously whenever possible using non-linear least-squares fitting procedures, capable of fitting one, two or three site models.
# Sequence of dopamine D2 receptor (P14416 whole entry, species assumed): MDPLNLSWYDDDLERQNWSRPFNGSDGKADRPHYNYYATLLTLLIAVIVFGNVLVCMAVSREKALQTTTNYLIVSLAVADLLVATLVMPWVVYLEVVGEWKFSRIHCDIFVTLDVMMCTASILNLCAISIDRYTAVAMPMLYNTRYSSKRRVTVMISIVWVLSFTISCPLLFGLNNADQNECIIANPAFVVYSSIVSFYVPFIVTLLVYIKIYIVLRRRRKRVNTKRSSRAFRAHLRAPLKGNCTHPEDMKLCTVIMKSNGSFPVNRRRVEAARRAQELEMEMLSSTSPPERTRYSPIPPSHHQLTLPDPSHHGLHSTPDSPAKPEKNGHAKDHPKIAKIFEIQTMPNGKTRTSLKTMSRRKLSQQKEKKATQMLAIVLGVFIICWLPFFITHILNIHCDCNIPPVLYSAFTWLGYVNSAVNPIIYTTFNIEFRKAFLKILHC
Ki [1] [µM],Ki [2] [µM],Structure (SMILES)
> 0.77,0.016,"Cc1cccc(C)c1C(=O)NCC1CC1CN1CCN(c2cc(C(F)(F)F)nc(C(C)(C)C)n2)CC1 (racemic) [N-{(Z)-2-[4-(2-tert-Butyl-6-trifluoromethyl-pyrimidin-4-yl)-piperazin-1-ylmethyl]-cyclopropylmethyl}-2,6-dimethyl-benzamide, dihydrochloride salt]"
> 0.74,0.031,CC(C)(C)c1nc(N2CCN(CC3CC3CNC(=O)c3ccc(Cl)cc3)CC2)cc(C(F)(F)F)n1 (racemic) [[Z](+/−)N-{2-[4-(2-tert-Butyl-6-trifluoromethyl-pyrimidin-4-yl)-piperazin-1-ylmethyl]-cyclopropylmethyl}-4-chloro-benzamide]
0.076,0.002,"Cc1cccc(C)c1C(=O)NCC1CC1CN1CCN(c2cccc(C(F)(F)F)c2)CC1 (single isomer, unassigned) [2,6-Dimethyl-N-{(E)-2-[4-(3-trifluoromethyl-phenyl)-piperazin-1-ylmethyl]-cyclopropylmethyl}benzamide]"
0.46,0.005,"Cc1cccc(C)c1C(=O)NCC1CC1CN1CCN(c2cccc(C(F)(F)F)c2)CC1 (single isomer, unassigned) [2,6-Dimethyl-N-{(Z)-2-[4-(3-trifluoromethyl-phenyl)-piperazin-1-ylmethyl]-cyclopropylmethyl}benzamide]"
